Values after ≈ are worked out from the molar mass of the structure shown.
Tests used:
B. subtilis = experiment: MIC, two-fold serial dilution, B. subtilis; type: cell-based; details: Bacillus subtilis; read-out: Minimum Inhibitory Concentration (MIC), B. subtilis
Experimental: (§1) Table 2, using the reference drug ciprofloxacin, was presented with the MICs (minimal inhibitory concentrations) of these compounds against tested bacteria. […] The nature of aromatic substitution in the oxadiazole moiety tends to be correlated with higher antibacterial effects and the activity increased with (Ar) in the order of 2-pyridyl ≥ 3-pyridyl > 4-pyridyl > 2-Cl-Ph > 2-naphthyl.
(§2) On 96-well microtiter plates and […] of fresh bacterial culture of a single McFarland unit overnight, a double serial dilution of each compound […] in sterile standard saline was prepared for every single source well. Ciprofloxacin antibiotic (5 mg/mL^−1) and normal saline were included as standard references in each assay (see Appendix A).
(§3) In 96-well microtiter plates and […] of fresh bacterial culture of a single McFarland unit overnight, a double serial dilution of each compound […] in sterile standard saline was prepared for every single source well. Ciprofloxacin antibiotic (5 mg/mL^−1) and normal saline were included as standard reference in each assay. The plates were incubated at 37 °C overnight. As an indicator of bacterial growth, […] of p-iodonitrotetrazolium violet (INT) was added to each well and incubated at 37 °C for 30 min. […] The colorless tetrazolidium salt acts as an electron accepter and is reduced to a red colored formazan product by biological activity organisms. Where bacterial growth was inhibited, the solution in the well remained clear after incubation with INT.

S. aureus = experiment: MIC, two-fold serial dilution, S. aureus; type: cell-based, Staphylococcus aureus; details: for MIC: Staphylococcus aureus, read-out: Minimum Inhibitory Concentration (MIC), S. aureus
Experimental: as §1, §2, §3

E. coli = experiment: MIC, two-fold serial dilution, E. coli; type: cell-based; details: Escherichia coli; read-out: Minimum Inhibitory Concentration (MIC), E. coli
Experimental: as §1, §2, §3

P. aeruginosa = experiment: MIC, two-fold serial dilution, P. aeruginosa; type: cell-based; details: Pseudomonas aeruginosa; read-out: Minimum Inhibitory Concentration (MIC), P. aeruginosa
Experimental: as §1, §2, §3

E. coli DNA gyrase = molecular target: T1, E. coli DNA gyrase (Escherichia coli, UniProt P0AES4+P0AES6); experiment: E. coli DNA gyrase assay; type: biochemical; details: read-out: RA (%), residual activity of E. coli DNA Gyrase
T1 construct: purchased Inspiralis
Experimental: (§4) IC50 assay determination was carried out in accordance with the procedures previously stated (see Appendix A).
(§5) Inhibitory activities were determined in an assay from Inspiralis on streptavidin-coated 96-well microtiter plates from Thermo scientific Pierce. […] After washing off the unbound oligonucleotide, the enzyme test was performed. […] After that, the TF buffer (50 mM NaOAc with pH 5.0, 50 mM NaCl and 50 mM MgCl2) was added to terminate the enzymatic reaction. After additional incubation for 30 min at rt, during which biotin-oligonucleotide-plasmid triplex was 19 formed, the unbound plasmid was washed off using TF buffer and SybrGOLD in T10 buffer (10 mM Tris HCl with pH 8.0 and 1 mM EDTA) was added. […] Initial screening was done at 100 or 10 μM concentration of inhibitors. […] GraphPad Prism software was used to calculate the IC50 values. The result is given as the average value of three independent measurements. […] Determination of inhibitory activities on E. coli and S. aureus Topoisomerase IV IC50 values were determined in an assay from Inspiralis on streptavidin-coated 96-well microtiter plates from Thermo scientific Pierce. […] After washing off the unbound oligonucleotide, the enzyme test was performed. The reaction volume of 30 μL in buffer (40 mM HEPES KOH with pH 7.6, 100 mM potassium glutamate, 10 mM magnesium acetate, 10 mM DTT, 1 mM ATP, 0.05 mg/mL albumin) contained 1.5 U of topoisomerase IV from E. coli or S. aureus, 0.75 μg of pNO1 supercoiled plasmid, and 3 μL solution of the inhibitor in DMSO (10%) and Tween 20 (0.008%). […] After additional incubation for 30 min at rt, during which triplex (biotin-oligonucleotide-plasmid) was formed, the unbound plasmid was washed off using TF buffer and SybrGOLD in T10 buffer (10 mM Tris HCl with pH 8.0 and 1 mM EDTA) was added. […] Initial screening was done at 100 or 10 μM concentration of inhibitors. […] GraphPad Prism software was used to calculate the IC50 values. The result is given as the average value of three independent measurements.

E. coli topoisomerase IV = molecular target: T2, E. coli topoisomerase IV (Escherichia coli, UniProt P0AFI2+P20083); experiment: E. coli topoisomerase IV assay; type: biochemical; details: read-out: RA (%), residual activity of E. coli Topo IV
T2 construct: purchased Inspiralis
Experimental: as §4, §5

[1] = Cell viability assay (MTT); type: cell-based; design: dose or concentration left out as unconfirmed; details: human, MCF-10A mammary gland epithelial cells, four days
Experimental: A human mammary gland epithelial cell line (MCF-10A) was used to conduct a cell viability assay. Compounds 2–6 were incubated with MCF-10A cells for four days, and the viability of the cells was determined using the 3-(4,5-dimethylthiazol-2-yl)-2,5-diphenyltetrazolium bromide (MTT) assay. All compounds had no cytotoxic effects, and the viability of the cells was greater than 85% for most of the compounds examined […], as shown in Table 4.
MTT Assay was performed to investigate the effect of compounds 2–6 on the viability of mammary epithelial cells (MCF-10A) (see Appendix A).

T2 sequence (P0AFI2 whole entry): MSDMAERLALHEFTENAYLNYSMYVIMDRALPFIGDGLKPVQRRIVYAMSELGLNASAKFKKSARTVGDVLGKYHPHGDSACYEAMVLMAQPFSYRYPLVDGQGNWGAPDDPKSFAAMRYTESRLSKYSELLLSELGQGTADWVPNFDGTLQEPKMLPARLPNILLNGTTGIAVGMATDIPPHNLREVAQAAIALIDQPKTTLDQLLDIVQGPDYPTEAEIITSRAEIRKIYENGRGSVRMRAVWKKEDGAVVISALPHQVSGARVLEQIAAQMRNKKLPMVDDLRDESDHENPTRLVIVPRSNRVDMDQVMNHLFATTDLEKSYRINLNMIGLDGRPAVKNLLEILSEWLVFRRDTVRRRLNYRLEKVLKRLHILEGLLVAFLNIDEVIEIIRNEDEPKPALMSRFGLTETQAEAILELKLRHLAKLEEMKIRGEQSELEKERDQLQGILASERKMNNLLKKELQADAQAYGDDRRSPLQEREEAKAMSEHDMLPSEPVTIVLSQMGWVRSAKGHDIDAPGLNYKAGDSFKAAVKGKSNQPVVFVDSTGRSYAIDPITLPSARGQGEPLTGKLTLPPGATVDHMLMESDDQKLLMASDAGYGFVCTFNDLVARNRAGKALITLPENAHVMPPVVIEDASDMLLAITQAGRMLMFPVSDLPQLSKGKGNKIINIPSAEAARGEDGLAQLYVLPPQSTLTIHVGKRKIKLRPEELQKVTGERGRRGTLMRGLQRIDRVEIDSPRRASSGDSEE
T2 sequence (P20083 whole entry): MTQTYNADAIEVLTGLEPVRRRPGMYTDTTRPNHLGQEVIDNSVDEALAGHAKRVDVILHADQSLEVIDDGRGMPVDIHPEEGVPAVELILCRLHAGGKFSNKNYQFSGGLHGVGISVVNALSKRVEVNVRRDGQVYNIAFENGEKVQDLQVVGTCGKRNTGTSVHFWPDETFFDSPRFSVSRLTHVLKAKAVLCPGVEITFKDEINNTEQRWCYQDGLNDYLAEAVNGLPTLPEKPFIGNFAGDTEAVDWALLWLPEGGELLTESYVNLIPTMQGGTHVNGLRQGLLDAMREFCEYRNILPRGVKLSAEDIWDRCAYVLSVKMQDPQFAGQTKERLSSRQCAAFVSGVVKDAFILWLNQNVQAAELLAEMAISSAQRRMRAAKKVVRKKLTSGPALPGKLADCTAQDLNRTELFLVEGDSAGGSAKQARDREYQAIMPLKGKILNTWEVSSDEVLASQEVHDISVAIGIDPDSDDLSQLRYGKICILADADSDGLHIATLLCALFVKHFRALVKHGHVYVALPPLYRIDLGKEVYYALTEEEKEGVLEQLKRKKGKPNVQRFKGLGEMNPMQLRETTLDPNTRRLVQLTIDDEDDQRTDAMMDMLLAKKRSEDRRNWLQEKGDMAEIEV

SMILES	melting point [°C]	further results
O=C(O)c1cn(C2CC2)c2cc(N3CCNCC3)c(F)cc2c1=O [Ciprofloxacin]		MIC (B. subtilis): 0.01 µg/mL (≈ 0.0302 µM); MIC, S. aureus (S. aureus): 0.03 µg/mL (≈ 0.0905 µM); MIC (S. aureus): 0.03 µg/mL (≈ 0.0905 µM); MIC (E. coli): 0.06 µg/mL (≈ 0.181 µM); MIC (P. aeruginosa): 0.06 µg/mL (≈ 0.181 µM)
O=C(O)c1cn(C2CC2)c2cc(N3CCN(Cn4nc(-c5ccccc5)oc4=S)CC3)c(F)cc2c1=O [Compound 1, 1-Cyclopropyl-6-fluoro-4-oxo-7-[4-(5-phenyl-2-thioxo[1,3,4]oxadiazol-3-yl-methyl)-piperazin-1-yl]-1,4-dihydro-quinoline-3-carboxylic acid]	228	
O=C(O)c1cn(C2CC2)c2cc(N3CCN(Cn4nc(-c5ccccc5Cl)oc4=S)CC3)c(F)cc2c1=O [Compound 2, 7-{4-[5-(2-Chloro-phenyl)-2-thioxo-[1,3,4]oxadiazol-3-ylmethyl]-piperazin-1-yl}-1-cyclopropyl-6-fluoro-4-oxo-1,4-dihydro-quinoline-3-carboxylic acid]	226	MIC (B. subtilis): 0.125 µg/mL (≈ 0.225 µM); MIC, S. aureus (S. aureus): 0.062 µg/mL (≈ 0.112 µM); MIC (S. aureus): 0.162 µg/mL (≈ 0.291 µM); MIC (E. coli): 0.125 µg/mL (≈ 0.225 µM); MIC (P. aeruginosa): 0.125 µg/mL (≈ 0.225 µM); remaining activity at 1 µM (E. coli DNA gyrase): 57%; remaining activity at 1 µM (E. coli topoisomerase IV): 89%; viability at 4 days [1]: 87%
O=C(O)c1cn(C2CC2)c2cc(N3CCN(Cn4nc(-c5ccccc5)n(-c5ccccc5)c4=S)CC3)c(F)cc2c1=O [Compound 7, 1-Cyclopropyl-7-[4-(3,4-diphenyl-5-thioxo-4,5-dihydro-[1,2,4]triazol-1-ylmethyl)-piperazin-1-yl]-6-fluoro-4-oxo-1,4-dihydro-quinoline-3-carboxylic acid]	288	
O=C(O)c1cn(C2CC2)c2cc(N3CCN(Cn4nc(-c5ccccc5Cl)n(-c5ccccc5)c4=S)CC3)c(F)cc2c1=O [Compound 8, 7-{4-[3-(2-Chloro-phenyl)-4-phenyl-5-thioxo-4,5-dihydro-[1,2,4]triazol-1-ylmethyl]-piperazin-1-yl}-1-cyclopropyl-6-fluoro-4-oxo-1,4-dihydro-quinoline-3-carboxylic acid]	214	
O=C(O)c1cn(C2CC2)c2cc(N3CCN(Cn4nc(-c5ccc6ccccc6c5)n(-c5ccccc5)c4=S)CC3)c(F)cc2c1=O [Compound 9, 1-Cyclopropyl-6-fluoro-7-[4-(3-naphthalen-2-yl-4-phenyl-5-thioxo-4,5-dihydro-[1,2,4]triazol-1-ylmethyl)-piperazin-1-yl]-4-oxo-1,4-dihydro-quinoline-3-carboxylic acid]	262	
O=C(O)c1cn(C2CC2)c2cc(N3CCN(Cn4nc(-c5ccccn5)n(-c5ccccc5)c4=S)CC3)c(F)cc2c1=O [Compound 10, 1-Cyclopropyl-6-fluoro-4-oxo-7-[4-(4-phenyl-3-pyridin-2-yl-5-thioxo-4,5-dihydro-[1,2,4]triazol-1-ylmethyl)-piperazin-1-yl]-1,4-dihydro-quinoline-3-carboxylic acid]	270	

The next lines start with results.

melting point [°C]	SMILES	further results
280	O=C(O)c1cn(C2CC2)c2cc(N3CCN(Cn4nc(-c5cccnc5)n(-c5ccccc5)c4=S)CC3)c(F)cc2c1=O [Compound 11, 1-Cyclopropyl-6-fluoro-4-oxo-7-[4-(4-phenyl-3-pyridin-3-yl-5-thioxo-4,5-dihydro-[1,2,4]triazol-1-ylmethyl)-piperazin-1-yl]-1,4-dihydro-quinoline-3-carboxylic acid]	
227	O=C(O)c1cn(C2CC2)c2cc(N3CCN(Cn4nc(-c5ccncc5)n(-c5ccccc5)c4=S)CC3)c(F)cc2c1=O [Compound 12, 1-Cyclopropyl-6-fluoro-4-oxo-7-[4-(4-phenyl-3-pyridin-4-yl-5-thioxo-4,5-dihydro-[1,2,4]triazol-1-ylmethyl)-piperazin-1-yl]-1,4-dihydro-quinoline-3-carboxylic acid]	
217	O=C(O)c1cn(C2CC2)c2cc(N3CCN(CN4C(=O)C(c5ccccc5)(c5ccccc5)NC4=S)CC3)c(F)cc2c1=O [Compound 13, 1-Cyclopropyl-6-fluoro-4-oxo-7-[4-(5-oxo-4,4-diphenyl-2-thioxo-imidazolidin-1-ylmethyl)-piperazin-1-yl]-1,4-dihydro-quinoline-3-carboxylic acid]	
234	NN1C(=S)N(CN2CCN(c3cc4c(cc3F)c(=O)c(C(=O)O)cn4C3CC3)CC2)C(=O)C1(c1ccccc1)c1ccccc1 [Compound 14, 7-[4-(3-Amino-5-oxo-4,4-diphenyl-2-thioxo-imidazolidin-1-ylmethyl)-piperazin-1-yl]-1-cyclopropyl-6-fluoro-4-oxo-1,4-dihydro-quinoline-3-carboxylic acid]	
230	N#CN=C1NC(c2ccccc2)(c2ccccc2)C(=O)N1CN1CCN(c2cc3c(cc2F)c(=O)c(C(=O)O)cn3C2CC2)CC1 [Compound 15, 7-[4-(2-Cyanoimino-5-oxo-4,4-diphenyl-imidazolidin-1-ylmethyl)-piperazin-1-yl]-1-cyclopropyl-6-fluoro-4-oxo-1,4-dihydro-quinoline-3-carboxylic acid]	
244	O=C(O)c1cn(C2CC2)c2cc(N3CCN(CN4C(=O)SC(=Cc5ccc(Cl)cc5)C4=O)CC3)c(F)cc2c1=O [Compound 17, 7-{4-[5-(4-Chloro-benzylidene)-2,4-dioxo-thiazolidin-3-ylmethyl]-piperazin-1-yl}-1-cyclopropyl-6-fluoro-4-oxo-1,4-dihydro-quinoline-3-carboxylic acid]	
251	COc1ccc(C=C2SC(=O)N(CN3CCN(c4cc5c(cc4F)c(=O)c(C(=O)O)cn5C4CC4)CC3)C2=O)cc1 [Compound 18, 1-Cyclopropyl-6-fluoro-7-{4-[5-(4-methoxy-benzylidene)-2,4-dioxo-thiazolidin-3-ylmethyl]-piperazin-1-yl}-4-oxo-1,4-dihydro-quinoline-3-carboxylic acid]	
244	O=C(O)c1cn(C2CC2)c2cc(N3CCN(CN4C(=O)SC(=Cc5ccccc5O)C4=O)CC3)c(F)cc2c1=O [Compound 19, 1-Cyclopropyl-6-fluoro-7-{4-[5-(2-hydroxy-benzylidene)-2,4-dioxo-thiazolidin-3-ylmethyl]-piperazin-1-yl}-4-oxo-1,4-dihydro-quinoline-3-carboxylic acid]	
241	O=C(O)c1cn(C2CC2)c2cc(N3CCN(CN4C(=O)c5ccccc5C4=O)CC3)c(F)cc2c1=O [Compound 20, 1-Cyclopropyl-7-[4-(1,3-dioxo-1,3-dihydro-isoindol-2-ylmethyl)-piperazin-1-yl]-6-fluoro-4-oxo-1,4-dihydro-quinoline-3-carboxylic acid]	
214	O=C(O)c1cn(C2CC2)c2cc(N3CCN(CN4C(=O)CCC4=O)CC3)c(F)cc2c1=O [Compound 21, 1-Cyclopropyl-7-[4-(2,5-dioxo-pyrrolidin-1-ylmethyl)-piperazin-1-yl]-6-fluoro-4-oxo-1,4-dihydro-quinoline-3-carboxylic acid]	

Reference: paper PMC8145110, “Design, Synthesis, and Antibacterial Screening of Some Novel Heteroaryl-Based Ciprofloxacin Derivatives as DNA Gyrase and Topoisomerase IV Inhibitors” (Pharmaceuticals, 2021)
